Patent US20020137929A1, “1 - (3-heterocyclylphenyl) isothiourea, -isourea, -guanidine and -amidine herbicidal agents” (Intellectual Property Department, BASF Aktiengesellschaft, priority 1998, published 2002)

What was measured:
[1] = test system: SAGPY (Arrowhead (Pygmaea)); assay: Postemergence weed control under flooded paddy conditions; format: in vivo, Sagittaria pygmaea; conditions: postemergence weeds, 3-4 weeks after treatment
Method in brief: (§1)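 Containers holding 3–5 cm weeds and rice at 1.5–2.5 leaves are flooded to 1.5–3 cm above soil. Compound in 50/50 v/v aqueous/acetone is then added directly to the water, about 0.0313–0.500 kg/ha. Plants are kept in the greenhouse and rated 0–9 visually at 3–4 weeks.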

ECHCG (Barnyardgrass) = assay: Preemergence herbicidal evaluation; format: in vivo, Echinochloa crus-galli; conditions: rated 4-5 weeks after treatment
Method in brief: (§2)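 Seeds were mixed with potting soil and planted on about one inch of soil, then sprayed with test compound in aqueous acetone at about 0.0156 to 0.500 kg per hectare. Plants grew under standard greenhouse care and were visually rated 0-9 against untreated controls 4-5 weeks post-treatment.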

ZEAMX (Corn, Field) [2] = assay: Postemergence herbicidal evaluation; format: in vivo, Zea mays; conditions: postemergence
Method in brief: (§3)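 Compound is applied as a foliar spray to seedlings about two weeks old, formulated in equal parts acetone and water with 0.5% TWEEN 20 and delivered at 40 psi to give about 0.0156–0.500 kg per hectare. Injury is rated visually 0–9 after four to five weeks.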

[3] = test system: ECHORC (Watergrass (Calif.)); assay: Postemergence weed control under flooded paddy conditions; format: in vivo, Echinochloa oryzoides; conditions: postemergence weeds, 3-4 weeks after treatment
Method in brief: as §1

CYPSE (Flatsedge) [4] = assay: as above; format: in vivo, Cyperus serotinus; conditions: postemergence weeds, 3-4 weeks after treatment
Method in brief: as §1

CYPIR (Rice Flatsedge) [5] = assay: as above; format: in vivo, Cyperus iria; conditions: postemergence weeds, 3-4 weeks after treatment
Method in brief: as §1

ZEAMX (Corn, Field) [6] = assay: Preemergence herbicidal evaluation; format: in vivo, Zea mays; conditions: rated 4-5 weeks after treatment
Method in brief: as §2

ORYSAT (Rice, Tebonnet) = assay: Postemergence herbicidal evaluation; format: in vivo, Oryza sativa, (L.) Tebonnet; conditions: postemergence
Method in brief: as §3

CYPIR (Rice Flatsedge) [7] = assay: Preemergence weed control under flooded paddy conditions; format: in vivo, Cyperus iria; conditions: rated 3-4 weeks after treatment
Method in brief: (§4)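 Silt loam, seeds in top 0.5 cm; flood held 1.5-3 cm; test cpd as acetone/water 50/50 into flood water, ~0.0313-0.500 kg/ha a.i.; greenhouse 3-4 wk; visual 0-9 score vs control.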

[8] = test system: TRZAWR (Wheat, Winter, cv Riband); assay: Preemergence herbicidal evaluation; format: in vivo, Triticum aestivum; conditions: rated 4-5 weeks after treatment
Method in brief: as §2

SETVI (Foxtail, Green) [9] = assay: Preemergence herbicidal evaluation; format: in vivo, Setaria viridis; conditions: rated 4-5 weeks after treatment
Method in brief: as §2

CYPSE (Flatsedge) [10] = assay: Preemergence weed control under flooded paddy conditions; format: in vivo, Cyperus serotinus; conditions: rated 3-4 weeks after treatment
Method in brief: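 First, seeds or propagules go into the top 0.5 cm of silt loam; next, water is held 1.5 to 3 cm over the soil; then compound (50/50 acetone/water) is pipetted into it at about 0.0313 to 0.500 kg/ha; finally plants are rated visually 0-9 after three to four weeks.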

SETVI (Foxtail, Green) [11] = assay: Postemergence herbicidal evaluation; format: in vivo, Setaria viridis; conditions: postemergence
Method in brief: as §3

[12] = test system: ECHORC (Watergrass (Calif.)); assay: Preemergence weed control under flooded paddy conditions; format: in vivo, Echinochloa oryzoides; conditions: rated 3-4 weeks after treatment
Method in brief: as §4

CCOC(=O)CN1C(=O)C2(CC2)SC1=Nc1cc(-n2c(=O)cc(C(F)(F)F)n(C)c2=O)c(F)cc1Cl [Compound 15, Ethyl 5-{{2-chloro-5-[3,6-dihydro-3-methyl-2,6-dioxo-4-(trifluoromethyl)-1(2H)-pyrimidinyl]-4-fluorophenyl}imino}-7-oxo-4-thia-6-azaspiro[2.4]-heptane-6-acetate]
Herbicidal rating SAGPY ([1]; rate 0.0313 kg/ha): 0.0
Herbicidal rating SAGPY ([1]; rate 0.0625 kg/ha): 0.0
Herbicidal rating SAGPY ([1]; rate 0.1250 kg/ha): 0.0
Herbicidal rating SAGPY ([1]; rate 0.2500 kg/ha): 0.0
ECHCG preemergence herbicidal rating (ECHCG (Barnyardgrass); rate 0.0156 kg/ha): 0.0
ECHCG preemergence herbicidal rating (ECHCG (Barnyardgrass); rate 0.0313 kg/ha): 0.5
ECHCG preemergence herbicidal rating (ECHCG (Barnyardgrass); rate 0.0625 kg/ha): 1.0
ECHCG preemergence herbicidal rating (ECHCG (Barnyardgrass); rate 0.1250 kg/ha): 2.0
ECHCG preemergence herbicidal rating (ECHCG (Barnyardgrass); rate 0.2500 kg/ha): 4.5
ZEAMX herbicidal rating (ZEAMX (Corn, Field) [2]; rate 0.0156 kg/ha): 5.0
ZEAMX herbicidal rating (ZEAMX (Corn, Field) [2]; rate 0.0313 kg/ha): 6.0
ZEAMX herbicidal rating (ZEAMX (Corn, Field) [2]; rate 0.0625 kg/ha): 7.0
ZEAMX herbicidal rating (ZEAMX (Corn, Field) [2]; rate 0.1250 kg/ha): 7.5
Herbicidal rating ECHORC ([3]; rate 0.0313 kg/ha): 6.0
Herbicidal rating ECHORC ([3]; rate 0.0625 kg/ha): 9.0
Herbicidal rating ECHORC ([3]; rate 0.1250 kg/ha): 9.0
Herbicidal rating ECHORC ([3]; rate 0.2500 kg/ha): 9.0
Herbicidal rating CYPSE (CYPSE (Flatsedge) [4]; rate 0.0313 kg/ha): 0.0
Herbicidal rating CYPSE (CYPSE (Flatsedge) [4]; rate 0.0625 kg/ha): 0.0
Herbicidal rating CYPSE (CYPSE (Flatsedge) [4]; rate 0.1250 kg/ha): 0.0
Herbicidal rating CYPSE (CYPSE (Flatsedge) [4]; rate 0.2500 kg/ha): 0.0
Herbicidal rating CYPIR (CYPIR (Rice Flatsedge) [5]; rate 0.0313 kg/ha): 2.0
Herbicidal rating CYPIR (CYPIR (Rice Flatsedge) [5]; rate 0.0625 kg/ha): 2.0
Herbicidal rating CYPIR (CYPIR (Rice Flatsedge) [5]; rate 0.1250 kg/ha): 6.0
Herbicidal rating CYPIR (CYPIR (Rice Flatsedge) [5]; rate 0.2500 kg/ha): 7.0
ZEAMX preemergence herbicidal rating (ZEAMX (Corn, Field) [6]; rate 0.0156 kg/ha): 1.0
ZEAMX preemergence herbicidal rating (ZEAMX (Corn, Field) [6]; rate 0.0313 kg/ha): 1.0
ZEAMX preemergence herbicidal rating (ZEAMX (Corn, Field) [6]; rate 0.0625 kg/ha): 2.5
ZEAMX preemergence herbicidal rating (ZEAMX (Corn, Field) [6]; rate 0.1250 kg/ha): 3.0
ZEAMX preemergence herbicidal rating (ZEAMX (Corn, Field) [6]; rate 0.2500 kg/ha): 5.0
ORYSAT herbicidal rating (ORYSAT (Rice, Tebonnet); rate 0.0156 kg/ha): 4.5
ORYSAT herbicidal rating (ORYSAT (Rice, Tebonnet); rate 0.0313 kg/ha): 5.0
ORYSAT herbicidal rating (ORYSAT (Rice, Tebonnet); rate 0.0625 kg/ha): 6.5
ORYSAT herbicidal rating (ORYSAT (Rice, Tebonnet); rate 0.1250 kg/ha): 6.5
Herbicidal rating CYPIR (CYPIR (Rice Flatsedge) [7]; 0.0313 kg/ha): 2.0
Herbicidal rating CYPIR (CYPIR (Rice Flatsedge) [7]; 0.0625 kg/ha): 2.0
Herbicidal rating CYPIR (CYPIR (Rice Flatsedge) [7]; 0.1250 kg/ha): 6.0
Herbicidal rating CYPIR (CYPIR (Rice Flatsedge) [7]; 0.2500 kg/ha): 7.0
TRZAWR preemergence herbicidal rating ([8]; rate 0.0156 kg/ha): 0.0
TRZAWR preemergence herbicidal rating ([8]; rate 0.0313 kg/ha): 0.0
TRZAWR preemergence herbicidal rating ([8]; rate 0.0625 kg/ha): 0.0
TRZAWR preemergence herbicidal rating ([8]; rate 0.1250 kg/ha): 5.0
TRZAWR preemergence herbicidal rating ([8]; rate 0.2500 kg/ha): 5.0
SETVI preemergence herbicidal rating (SETVI (Foxtail, Green) [9]; rate 0.0156 kg/ha): 0.5
SETVI preemergence herbicidal rating (SETVI (Foxtail, Green) [9]; rate 0.0313 kg/ha): 0.5
SETVI preemergence herbicidal rating (SETVI (Foxtail, Green) [9]; rate 0.0625 kg/ha): 0.5
SETVI preemergence herbicidal rating (SETVI (Foxtail, Green) [9]; rate 0.1250 kg/ha): 4.0
SETVI preemergence herbicidal rating (SETVI (Foxtail, Green) [9]; rate 0.2500 kg/ha): 9.0
Herbicidal rating CYPSE (CYPSE (Flatsedge) [10]; 0.0313 kg/ha): 0.0
Herbicidal rating CYPSE (CYPSE (Flatsedge) [10]; 0.0625 kg/ha): 0.0
Herbicidal rating CYPSE (CYPSE (Flatsedge) [10]; 0.1250 kg/ha): 0.0
Herbicidal rating CYPSE (CYPSE (Flatsedge) [10]; 0.2500 kg/ha): 0.0
SETVI herbicidal rating (SETVI (Foxtail, Green) [11]; rate 0.0156 kg/ha): 0.0
SETVI herbicidal rating (SETVI (Foxtail, Green) [11]; rate 0.0313 kg/ha): 0.0
SETVI herbicidal rating (SETVI (Foxtail, Green) [11]; rate 0.0625 kg/ha): 2.0
SETVI herbicidal rating (SETVI (Foxtail, Green) [11]; rate 0.1250 kg/ha): 7.0
Herbicidal rating ECHORC ([12]; 0.0313 kg/ha): 6.0
Herbicidal rating ECHORC ([12]; 0.0625 kg/ha): 9.0
Herbicidal rating ECHORC ([12]; 0.1250 kg/ha): 9.0
Herbicidal rating ECHORC ([12]; 0.2500 kg/ha): 9.0
